By IC50 is commonly meant the point on the concentration scale where inhibition reaches its midpoint. One may read the EC50 as the concentration giving half of the maximal effect.

The source of these data is patent US11427610B2, “Cyclic dinucleotides as anticancer agents” (BRISTOL-MYERS SQUIBB COMPANY, priority 2017, dated 2022).

The structures appear in SMILES notation.

T2 sequence (Q86WV6 with tags, fused parts or gaps G230A/H232R/R293Q): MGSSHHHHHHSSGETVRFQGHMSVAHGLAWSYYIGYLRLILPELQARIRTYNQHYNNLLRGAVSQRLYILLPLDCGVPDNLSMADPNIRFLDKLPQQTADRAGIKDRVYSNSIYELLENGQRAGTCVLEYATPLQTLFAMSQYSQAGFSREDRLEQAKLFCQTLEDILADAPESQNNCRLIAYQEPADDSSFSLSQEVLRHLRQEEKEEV

One experiment deals with T1, STING WT: His-TVMV-S-hSTING(155-341)-H232R (Homo sapiens, UniProt Q86WV6, H232R).
T1 construct: His-TVMV-S-hSTING(155-341)-H232R
T1 sequence (Q86WV6 with tags, fused parts or gaps H232R): as the sequence (Q86WV6 with tags, fused parts or gaps G230A/H232R/R293Q) above, with A99G, Q162R counted along it
In words: STING HTRF binding assay, STING WT. Particulars: 20 nM His-tagged STING cytoplasmic domain, 200 nM fluorescein-labeled cGAMP analog probe, one hour; read-out: HTRF Binding Assays IC50 (μM) STING WT. As for the experimental part: (§1) A time resolved FRET-based competition binding assay was used to assess test article binding to STING WT and STING AQ. His-tagged STING cytoplasmic domain (WT or AQ) at a concentration of 20 nM was incubated with 2.5 nM Tb-labeled anti-His antibody, test compound, and fluorescein-labeled cGAMP analog probe (BioLog cat. no. C195) at a concentration of 200 nM (STING WT) or 40 nM (STING AQ) in PBS containing 0.005% Tween-20 and 0.1% BSA for one hour. Fluorescence at 495 nm and 520 nm was measured using an EnVision microplate reader to quantify FRET between Tb-labeled anti-His antibody and fluorescein-labeled probe. Background was defined as the signal obtained in the absence of STING protein, and background subtracted FRET ratios were normalized to the maximum signal obtained in the absence of test compound. These values were converted to a percent inhibition. Percent inhibition was determined for test compounds at 11 concentrations. The IC50, defined as the concentration of competing test compound needed to reduce specific binding of the probe by 50%, was calculated using the 4 parameter logistic equation to fit the data
For orientation: TR-FRET usually uses a lanthanide donor and a delayed reading to cut background.
Take `Nc1ncnc2c1ncn2[C@@H]1O[C@@H]2COP(O)(=S)O[C@@H]3[C@H](O)[C@@H](COP(O)(=S)O[C@H]2[C@H]1F)O[C@H]3C#Cc1ccccc1` (single isomer, unassigned) [Example 2-2]: the IC50 was found to be 9.6 µM.

For `Nc1ncnc2c1ncn2[C@@H]1O[C@@H]2COP(O)(=S)O[C@@H]3[C@H](O)[C@@H](COP(O)(=S)O[C@H]2[C@H]1F)O[C@H]3C#Cc1cccnc1` (single isomer, unassigned) [Example 3-1], the IC50 was determined as 67.4 µM.

`Nc1ncnc2c1ncn2[C@@H]1O[C@@H]2COP(O)(=S)O[C@@H]3[C@H](O)[C@@H](COP(O)(=S)O[C@H]2[C@H]1F)O[C@H]3C#Cc1ccccc1` (single isomer, unassigned) [Example 2-1]: the IC50 was over 100 µM.

On to `Nc1ncnc2c1ncn2[C@@H]1O[C@@H]2COP(O)(=S)O[C@@H]3[C@H](O)[C@@H](COP(O)(=S)O[C@H]2[C@H]1F)O[C@H]3C#Cc1cccnc1` (single isomer, unassigned) [Example 3-4], for which the half-inhibitory concentration (IC50) was 29.6 µM.

As for `C#C[C@@H]1O[C@@H]2COP(=O)(S)O[C@H]3[C@@H](F)[C@H](n4cnc5c(N)ncnc54)O[C@@H]3COP(=O)(S)O[C@@H]1[C@@H]2O` (single isomer, unassigned) [Example 1-1], the concentration for half-maximal inhibition (IC50) was 1.4 µM.

A further experiment has as its system IRF3. In words: STING THP1 reporter assay, IRF pathway (Lucia luciferase). Particulars: Homo sapiens, THP-1, 20 h, THP1-Dual cells, 10% human plasma, 100% activation = 100 μM cGAMP, luciferase readout, read-out: THP1 Reporter Assays EC50 (μM) IRF3. The class given is cell-based. An excerpt: (§2) THP1-Dual™ cells were derived from the human THP-1 monocyte cell line by stable integration of two inducible reporter constructs. To this end, THP1-Dual™ cells allow the simultaneous study of the NF-κB pathway, by monitoring the activity of SEAP, and the IRF pathway by assessing the activity of a secreted luciferase (Lucia). Both reporter proteins are readily measurable in the cell culture supernatant when using QUANTI-Blue™, a SEAP detection reagent, and QUANTI-Luc™, a luciferase detection reagent.
(§3) THP1-Dual™ cells induce the activation of NF-κB in response to STING agonists. They also trigger the IRF pathway upon stimulation with STING agonists, such as cGAMP. Here, the THP-1-Dual cells were used to assess STING binders for function on the cellular level.
(§4) Serial dilutions of compounds in DMSO were added to low volume 384 well plates at 100 nl/well using an ECHO acoustic dispenser (Labcyte, model 550) to achieve final starting concentration of 100 μM in cell suspension. THP-1 Dual™ STING reporter cells (Invivogen, Dual cells cat #THPD-nfis) were added to the plates with compounds at 15,000 cells in 10 μL per well in RPMI media (Gibco, cat #11875) containing 10% human plasma in a low volume 384-well black wall clear bottom tissue culture plate (Corning, cat #3542) for SEAP assay and low volume solid white plate (Corning, cat #3826) for luciferase assay. One column of the plate was reserved for treatment with cGAMP at 100 μM for 100% activation calculation and one column for no treatment (DMSO only) for baseline activation. Plates were then incubated in 37° C. incubator at 5% CO2 for 20 hours.
(§5) In the SEAP assay, 5 μl of 2× QuantiBlue (Invivogen, cat #Rep-qb2) is added to 384 well black plates seeded with THP1 cells and incubated at 37° C. for 2 hours. Plates were read on the Envision (Perkin Elmer) at 620 nm wavelength (OD620). In the luciferase assay, 5 μl of Quantiluc (Invivogen, Rep-qlc2) is added to white 384 well plates seeded with THP1 cells and read at 5 minutes on the Envision (Perkin Elmer) using a luminescence protocol (RLU). For both cell lines, 100% activation was determined by value (RLU) of THP-1 Dual STING cells stimulated with 100 μM cGAMP (Invivogen, cat #TLRL-NACGA23-5).
(In general: Reporter assays use an easily measured gene product as a stand-in for the process of interest.)
Take `C#C[C@@H]1O[C@@H]2COP(=O)(S)O[C@H]3[C@@H](F)[C@H](n4cnc5c(N)ncnc54)O[C@@H]3COP(=O)(S)O[C@@H]1[C@@H]2O` (single isomer, unassigned) [Example 1-1]: the EC50 is 23 µM.

The experiment is the same for the next values; noted with them: THP1-Dual cells, 10% human plasma, 20 hours, 100% activation = 100 μM cGAMP, luciferase readout; read-out: THP1 Reporter Assays EC50 (μM) IRF3.
Turning to `Nc1ncnc2c1ncn2[C@@H]1O[C@@H]2COP(O)(=S)O[C@@H]3[C@H](O)[C@@H](COP(O)(=S)O[C@H]2[C@H]1F)O[C@H]3C#Cc1ccccc1` (single isomer, unassigned) [Example 2-2], the EC50 is over 100 µM.

`Nc1ncnc2c1ncn2[C@@H]1O[C@@H]2COP(O)(=S)O[C@@H]3[C@H](O)[C@@H](COP(O)(=S)O[C@H]2[C@H]1F)O[C@H]3C#Cc1cccnc1` (single isomer, unassigned) [Example 3-1]: the EC50 is over 100 µM.

Regarding `Nc1ncnc2c1ncn2[C@@H]1O[C@@H]2COP(O)(=S)O[C@@H]3[C@H](O)[C@@H](COP(O)(=S)O[C@H]2[C@H]1F)O[C@H]3C#Cc1ccccc1` (single isomer, unassigned) [Example 2-1], the EC50 was over 100 µM.

Turning to `Nc1ncnc2c1ncn2[C@@H]1O[C@@H]2COP(O)(=S)O[C@@H]3[C@H](O)[C@@H](COP(O)(=S)O[C@H]2[C@H]1F)O[C@H]3C#Cc1cccnc1` (single isomer, unassigned) [Example 3-4], the EC50 was over 100 µM.

The test system of the next experiment is NFkB. The experiment in a line: STING THP1 reporter assay, NF-κB pathway (SEAP). Particulars: Homo sapiens, THP-1, 20 h, THP1-Dual cells, 10% human plasma, 100% activation = 100 μM cGAMP, SEAP readout, read-out: THP1 Reporter Assays EC50 (μM) NFkB. The class given is cell-based.
Excerpt: as §2, §3, §4, §5
Regarding `C#C[C@@H]1O[C@@H]2COP(=O)(S)O[C@H]3[C@@H](F)[C@H](n4cnc5c(N)ncnc54)O[C@@H]3COP(=O)(S)O[C@@H]1[C@@H]2O` (single isomer, unassigned) [Example 1-1], the EC50 was determined as 37 µM.

The same experiment, now with this note: THP1-Dual cells, 10% human plasma, 20 hours, 100% activation = 100 μM cGAMP, SEAP readout; read-out: THP1 Reporter Assays EC50 (μM) NFkB.
`Nc1ncnc2c1ncn2[C@@H]1O[C@@H]2COP(O)(=S)O[C@@H]3[C@H](O)[C@@H](COP(O)(=S)O[C@H]2[C@H]1F)O[C@H]3C#Cc1cccnc1` (single isomer, unassigned) [Example 3-1]: the EC50 was over 100 µM.

Take `Nc1ncnc2c1ncn2[C@@H]1O[C@@H]2COP(O)(=S)O[C@@H]3[C@H](O)[C@@H](COP(O)(=S)O[C@H]2[C@H]1F)O[C@H]3C#Cc1cccnc1` (single isomer, unassigned) [Example 3-4]: the EC50 was over 100 µM.

The next experiment addresses T2, STING AQ: His-TVMV-S-hSTING(155-341)-G230A-R293Q (Homo sapiens, UniProt Q86WV6, G230A/H232R/R293Q).
T2 construct: His-TVMV-S-hSTING(155-341)-G230A-R293Q
The experiment in a line: STING HTRF binding assay, STING AQ. To be noted: 20 nM His-tagged STING cytoplasmic domain, 40 nM fluorescein-labeled cGAMP analog probe, one hour; read-out: HTRF Binding Assays IC50 (μM) STING AQ. As for the experimental part: as §1
For the compound `Nc1ncnc2c1ncn2[C@@H]1O[C@@H]2COP(O)(=S)O[C@@H]3[C@H](O)[C@@H](COP(O)(=S)O[C@H]2[C@H]1F)O[C@H]3C#Cc1ccccc1` (single isomer, unassigned) [Example 2-2], the IC50 turned out to be 0.5 µM.

Regarding `Nc1ncnc2c1ncn2[C@@H]1O[C@@H]2COP(O)(=S)O[C@@H]3[C@H](O)[C@@H](COP(O)(=S)O[C@H]2[C@H]1F)O[C@H]3C#Cc1cccnc1` (single isomer, unassigned) [Example 3-1], the IC50 is 1.3 µM.

In the case of `Nc1ncnc2c1ncn2[C@@H]1O[C@@H]2COP(O)(=S)O[C@@H]3[C@H](O)[C@@H](COP(O)(=S)O[C@H]2[C@H]1F)O[C@H]3C#Cc1ccccc1` (single isomer, unassigned) [Example 2-1], the IC50 turned out to be 19.4 µM.

As for `Nc1ncnc2c1ncn2[C@@H]1O[C@@H]2COP(O)(=S)O[C@@H]3[C@H](O)[C@@H](COP(O)(=S)O[C@H]2[C@H]1F)O[C@H]3C#Cc1cccnc1` (single isomer, unassigned) [Example 3-4], the IC50 is 1.4 µM.

`C#C[C@@H]1O[C@@H]2COP(=O)(S)O[C@H]3[C@@H](F)[C@H](n4cnc5c(N)ncnc54)O[C@@H]3COP(=O)(S)O[C@@H]1[C@@H]2O` (single isomer, unassigned) [Example 1-1]: the IC50 came out at 0.06 µM.
